Earlier results in patent publication US20110313040A1, “ORGANIC NUTRIENT SALTS, METHODS OF PREPARATION AND USES” (BELLUS HEALTH INC., priority 2008, published 2011).

Conditions: in vivo

SMILES: NCCCS(=O)(=O)[O-].[Na+] [sodium salt of homotaurine]
- stomach and gastrointestinal tolerance: caused stomach and gastrointestinal intolerance (e.g. nausea, vomiting)
